Laboratory results published in patent publication US7550456B2, “Substituted aryl cycloalkanoyl derivatives and methods of their use” (Wyeth, priority 2003, dated 2009).
Where a name gives a salt, the structure may show the parent alone.

Target: T1, human hNET (Homo sapiens, UniProt P23975)
T1 construct: expressed in transfected cells; host or cells: MDCK-Net6 (MDCK cells, stably transfected)
Assay: Norepinephrine (NE) uptake assay in MDCK-Net6 cells
Format: cell-based
Conditions: 1 μM test compound, [3H]NE uptake, read-out: % Inhibition @ 1 μM (hNET)
Procedure: Cells were plated at 300,000/T75 flask and cells were split twice weekly. […] Cells were plated at 250,000 cells/T75 flask and split twice weekly.
Norepinephrine (NE) Uptake Assay
On day 1, cells were plated at 3,000 cells/well in growth medium and maintained in a cell incubator (37° C., 5% CO2). On day 2, growth medium was replaced with 200 μl of assay buffer (25 mM HEPES; 120 mM NaCl; 5 mM KCl; 2.5 mM CaCl2; 1.2 mM MgSO4; 2 mg/ml glucose (pH 7.4, 37° C.)) containing 0.2 mg/ml ascorbic acid and 10 μM pargyline. Plates containing cells with 200 μl of assay buffer were equilibrated for 10 minutes at 37° C. prior to addition of compounds. A stock solution of desipramine was prepared in DMSO (10 mM) and delivered to triplicate wells containing cells for a final test concentration of 1 μM. Data from these wells were used to define non-specific NE uptake (minimum NE uptake). Test compounds were prepared in DMSO (10 mM) and diluted in assay buffer according to test range (1 to 10,000 nM). Twenty-five microliters of assay buffer (maximum NE uptake) or test compound were added directly to triplicate wells containing cells in 200 μl of assay buffer. The cells in assay buffer with test compounds were incubated for 20 minutes at 37° C. […] The reaction was terminated by decanting the supernatant from the plate. The plates containing cells were washed twice with 200 μl assay buffer (37° C.) to remove free radioligand. The plates were then inverted, left to dry for 2 minutes, then reinverted and air-dried for an additional 10 minutes. The cells were lysed in 25 μl of 0.25 N NaOH solution (4° C.), placed on a shake table and vigorously shaken for 5 minutes. After cell lysis, 75 μl of scintillation cocktail was added to each well and the plates were sealed with film tape. The plates were returned to the shake table and vigorously shaken for a minimum of 10 minutes to ensure adequate partitioning of organic and aqueous solutions. The plates were counted in a Wallac Microbeta counter (PerkinElmer) to collect the raw cpm data.
For each experiment, a data stream of cpm values collected from the Wallac Microbeta counter was downloaded to a Microsoft Excel statistical application program. Calculations of EC50 values were made using the transformed-both-sides logistic dose response program written by Wyeth Biometrics Department.

T1 sequence (P23975 whole entry): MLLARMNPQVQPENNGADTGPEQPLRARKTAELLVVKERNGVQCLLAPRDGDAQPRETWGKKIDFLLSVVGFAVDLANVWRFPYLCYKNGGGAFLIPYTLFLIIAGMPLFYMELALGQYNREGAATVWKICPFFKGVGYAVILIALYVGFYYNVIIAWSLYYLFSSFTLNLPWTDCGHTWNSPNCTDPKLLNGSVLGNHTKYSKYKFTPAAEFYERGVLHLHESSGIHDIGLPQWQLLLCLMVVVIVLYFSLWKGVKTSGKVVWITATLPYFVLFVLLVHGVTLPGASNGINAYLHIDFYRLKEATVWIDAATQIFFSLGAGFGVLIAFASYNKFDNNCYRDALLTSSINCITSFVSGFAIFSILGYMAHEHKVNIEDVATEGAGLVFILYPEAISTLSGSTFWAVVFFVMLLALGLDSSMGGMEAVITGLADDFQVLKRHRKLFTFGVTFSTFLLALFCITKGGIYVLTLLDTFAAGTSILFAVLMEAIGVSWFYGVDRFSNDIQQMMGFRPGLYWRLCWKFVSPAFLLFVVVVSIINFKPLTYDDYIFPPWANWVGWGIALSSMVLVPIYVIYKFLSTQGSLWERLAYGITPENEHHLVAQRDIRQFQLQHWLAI

Point of comparison: `OC1(C(CN2CCNCC2)c2ccc(-c3ccc(Cl)cc3)cc2)CCCCC1` (stereo not shown) [Example 172, 1-[1-(4′-chloro-1,1′-biphenyl-4-yl)-2-piperazin-1-ylethyl]cyclohexanol dihydrochloride], inhibition at 1 µM 55%. Against it:
- OC1(C(CN2CCNCC2)c2cccc(-c3cccc(OC(F)(F)F)c3)c2)CCCCC1 (stereo not shown) [Example 248, 1-{2-piperazin-1-yl-1-[3′-(trifluoromethoxy)-1,1′-biphenyl-3-yl]ethyl}cyclohexanol dihydrochloride] — lower, 7%
- OC1(C(CN2CCNCC2)c2ccc(-c3cccc(OC(F)(F)F)c3)cc2)CCCCC1 (stereo not shown) [Example 171, 1-{2-piperazin-1-yl-1-[3′-(trifluoromethoxy)-1,1′-biphenyl-4-yl]ethyl}cyclohexanol dihydrochloride] — lower, 32%
- OC1(C(CN2CCNCC2)c2cccc(-c3ccc(Cl)cc3)c2)CCCCC1 (stereo not shown) [Example 137, 1-[1-(4′-chloro-1,1′-biphenyl-3-yl)-2-piperazin-1-ylethyl]cyclohexanol dihydrochloride] — lower, 41%
- OC1(C(CN2CCNCC2)c2ccc(OCc3ccc4ccccc4c3)cc2)CCCCC1 (stereo not shown) [Example 432, 1-{1-[4-(2-naphthylmethoxy)phenyl]-2-piperazin-1-ylethyl}cyclohexanol] — higher, 64%
- CN1CCN(CC(c2ccc(-c3ccccc3Cl)cc2)C2(O)CCCCC2)CC1 (stereo not shown) [Example 175, 1-[1-(2′-chloro-1,1′-biphenyl-4-yl)-2-(4-methylpiperazin-1-yl)ethyl]cyclohexanol dihydrochloride] — lower, 20%
- CN1CCN(CC(c2ccc(OCc3cccc(C(F)(F)F)c3)cc2)C2(O)CCCCC2)CC1 (stereo not shown) [Example 439, 1-[2-(4-methylpiperazin-1-yl)-1-(4-{[3-(trifluoromethyl)benzyl]oxy}phenyl)ethyl]cyclohexanol dihydrochloride] — higher, 79%
- CN1CCN(CC(c2ccc(OCc3ccccc3)c(F)c2)C2(O)CCCCC2)CC1 (stereo not shown) [Example 414, 1-{1-[4-(benzyloxy)-3-fluorophenyl]-2-(4-methylpiperazin-1-yl)ethyl}cyclohexanol dihydrochloride] — higher, 96%
- CN1CCN(CC(c2ccc(OCc3ccc(C(F)(F)F)cc3)c(Cl)c2)C2(O)CCCCC2)CC1 (stereo not shown) [Example 420, 1-[1-(3-chloro-4-{[4-(trifluoromethyl)benzyl]oxy}phenyl)-2-(4-methylpiperazin-1-yl)ethyl]cyclohexanol dihydrochloride] — higher, 68%
- CC(C)COc1ccc(C(CN2CCNCC2)C2(O)CCCCC2)cc1OC(F)(F)F (stereo not shown) [Example 406, 1-{1-[4-isobutoxy-3-(trifluoromethoxy)phenyl]-2-piperazin-1-ylethyl}cyclohexanol dihydrochloride] — lower, 22%
- OC1(C(CN2CCNCC2)c2ccc(-c3ccccc3F)cc2)CCCCC1 (stereo not shown) [Example 289, 1-[1-(2′-fluoro-1,1′-biphenyl-4-yl)-2-piperazin-1-ylethyl]cyclohexanol dihydrochloride] — lower, 34%
- COc1ccc(C(CN2CCNCC2)C2(O)CCCCC2)cc1OC(F)(F)F (stereo not shown) [Example 402, 1-{1-[4-methoxy-3-(trifluoromethoxy)phenyl]-2-piperazin-1-ylethyl}cyclohexanol dihydrochloride] — lower, 42%
- CCOc1ccc(C(CN2CCNCC2)C2(O)CCCCC2)cc1OC(F)(F)F (stereo not shown) [Example 404, 1-{1-[4-ethoxy-3-(trifluoromethoxy)phenyl]-2-piperazin-1-ylethyl}cyclohexanol dihydrochloride] — lower, 42%
- OC1(C(CN2CCNCC2)c2ccc(OCc3ccc(C(F)(F)F)cc3)c(Cl)c2)CCCCC1 (stereo not shown) [Example 419, 1-[1-(3-chloro-4-{[4-(trifluoromethyl)benzyl]oxy}phenyl)-2-piperazin-1-ylethyl]cyclohexanol dihydrochloride] — lower, 46%
- OC1(C(CN2CCNCC2)c2ccc(OCc3ccc(C(F)(F)F)cc3)c(F)c2)CCCCC1 (stereo not shown) [Example 415, 1-[1-(3-fluoro-4-{[4-(trifluoromethyl)benzyl]oxy}phenyl)-2-piperazin-1-ylethyl]cyclohexanol dihydrochloride] — higher, 84%
- OC1(C(CN2CCNCC2)c2ccc(Oc3cccc4ccccc34)cc2)CCCCC1 (stereo not shown) [Example 389, 1-{1-[4-(1-naphthyloxy)phenyl]-2-piperazin-1-ylethyl}cyclohexanol dihydrochloride] — lower, 16%
- OC1(C(CN2CCN(CC3CCCCC3)CC2)c2ccc(OC(F)(F)F)cc2)CCCCC1 (stereo not shown) [Example 286, 1-{2-[4-(cyclohexylmethyl)piperazin-1-yl]-1-[4-(trifluoromethoxy)phenyl]ethyl}cyclohexanol dihydrochloride] — higher, 78.6%
- OC1(C(CN2CCNCC2)c2ccc(OCc3ccc4ccccc4c3)c(Cl)c2)CCCCC1 (stereo not shown) [Example 427, 1-{1-[3-chloro-4-(2-naphthylmethoxy)phenyl]-2-piperazin-1-ylethyl}cyclohexanol dihydrochloride] — lower, 33%
- C=Cc1ccc(C(CN2CCNCC2)C2(O)CCCCC2)cc1 (stereo not shown) [Example 163, 1-[2-piperazin-1-yl-1-(4-vinylphenyl)ethyl]cyclohexanol dihydrochloride] — lower, 17%
- CC(C)COc1ccc(C(CN2CCN(C)CC2)C2(O)CCCCC2)cc1OC(F)(F)F (stereo not shown) [Example 407, 1-[1-[4-isobutoxy-3-(trifluoromethoxy)phenyl]-2-(4-methylpiperazin-1-yl)ethyl]cyclohexanol dihydrochloride] — lower, 12%
- CN1CCN(CC(c2ccc(OCc3ccccc3)c(C#N)c2)C2(O)CCCCC2)CC1 (stereo not shown) [Example 267, 2-(benzyloxy)-5-[1-(1-hydroxycyclohexyl)-2-(4-methylpiperazin-1-yl)ethyl]benzonitrile dihydrochloride] — higher, 89%
- OC1(C(CN2CCNCC2)c2cccc(OCc3ccccc3)c2)CCC1 (stereo not shown) [Example 111, 1-{1-[3-(benzyloxy)phenyl]-2-piperazin-1-ylethyl}cyclobutanol dihydrochloride] — lower, -3%
- OC1(C(CN2CCNCC2)c2ccc(-c3ccsc3)cc2)CCCCC1 (stereo not shown) [Example 174, 1-[2-piperazin-1-yl-1-(4-thien-3-ylphenyl)ethyl]cyclohexanol dihydrochloride] — lower, 2%
- OC1(C(CN2CCN(Cc3ccc4c(c3)OCO4)CC2)c2ccc(OC(F)(F)F)cc2)CCCCC1 (stereo not shown) [Example 285, 1-{2-[4-(1,3-benzodioxol-5-ylmethyl)piperazin-1-yl]-1-[4-(trifluoromethoxy)phenyl]ethyl}cyclohexanol dihydrochloride] — lower, 20%
- N#Cc1cccc(C(CN2CCNCC2)C2(O)CCCCC2)c1 (stereo not shown) [Example 160, 1-[1-(3-cyanophenyl)-2-piperazin-1-ylethyl]cyclohexanol dihydrochloride] — lower, 50%
- COc1cc(C(CN2CCN(C)CC2)C2(O)CCCCC2)cc(Br)c1OCc1ccccc1 (stereo not shown) [Example 391, 1-[1-[4-(benzyloxy)-3-bromo-5-methoxyphenyl]-2-(4-methylpiperazin-1-yl)ethyl]cyclohexanol dihydrochloride] — lower, 30%
- CN1CCN(CC(c2ccc(OCC3CCCCC3)cc2)C2(O)CCCCC2)CC1 (stereo not shown) [Example 468, 1-[1-[4-(cyclohexylmethoxy)phenyl]-2-(4-methylpiperazin-1-yl)ethyl]cyclohexanol dihydrochloride] — lower, 0%
- OC1(C(CN2CCNCC2)c2ccc(-c3cccc(OC(F)(F)F)c3)cc2)CCC1 (stereo not shown) [Example 183, 1-{2-piperazin-1-yl-1-[3′-(trifluoromethoxy)-1,1′-biphenyl-4-yl]ethyl}cyclobutanol dihydrochloride] — lower, 16%
- OC1(C(CN2CCNCC2)c2ccc(-c3ccc(Cl)c(Cl)c3)cc2)CCC1 (stereo not shown) [Example 184, 1-[1-(3′,4′-dichloro-1,1′-biphenyl-4-yl)-2-piperazin-1-ylethyl]cyclobutanol dihydrochloride] — lower, 40%
- OC1(C(CN2CCNCC2)c2ccc(OCc3ccccc3)c(F)c2)CCCCC1 (stereo not shown) [Example 413, 1-{1-[4-(benzyloxy)-3-fluorophenyl]-2-piperazin-1-ylethyl}cyclohexanol dihydrochloride] — higher, 76%

Same assay, conditions: MDCK-Net6, read-out: % Inhibition @ 1 μM (hNET), 1 μM test compound, [3H]NE uptake

In the case of `CN1CCN(C[C@@H](c2cccc(OC(F)(F)F)c2)C2(O)CCCCC2)CC1` [Example 246, 1-{(1R)-2-(4-methylpiperazin-1-yl)-1-[3-(trifluoromethoxy)phenyl]ethyl}cyclohexanol dihydrochloride], the inhibition at 1 µM is reported as 7.4%.
